PMC8700061, “Fragment-Sized and Bidentate (Immuno)Proteasome Inhibitors Derived from Cysteine and Threonine Targeting Warheads” (Cells, 2021)
Marks after values point to notes of the source that are not given here.

Assays:
β5 subunit of human cCP = biological target: T1, β5 subunit of human cCP (Homo sapiens, UniProt P20618+P28074); assay: Inhibition of β5 activity (RA, IC50), Suc-LLVY-AMC; type: biochemical; conditions: 30 min pre-incubation, SDS
T1 construct: purchased Boston Biochem, Inc., Cambridge, MA, USA
Method: (§1) Residual activity measurements were performed at 10 μM final concentrations in the assay buffer (0.01% SDS, 50 mM Tris-HCl, 0.5 mM EDTA, pH 7.4). Stock solutions of the compounds were prepared in DMSO. To 50 μL of each compound in buffer, 25 μL of 0.8 nM human iCP or human cCP (both from Boston Biochem, Inc., Cambridge, MA, USA) were added. After incubation at 37 °C for 30 min, the reaction was started by adding of 25 μL of 100 μM relevant fluorogenic substrate: acetyl-Nle-Pro-Nle-Asp-AMC (Ac-nLPnLD-AMC, (Bachem, Bubendorf, Switzerland)) for β1, acetyl-Pro-Ala-Leu-7-amino-4-methylcoumarin (Ac-PAL-AMC, (Boston Biochem, Inc., Cambridge, MA, USA)) for β1i, t-butyloxycarbonyl-Leu-Arg-Arg-7-amino-4-methylcoumarin (Boc-LRR-AMC, (Bachem, Bubendorf, Switzerland)) for β2 and β2i, succinyl-Leu-Leu-Val-Tyr-7-amino-4-methylcoumarin (Suc-LLVY-AMC) (Bachem, Bubendorf, Switzerland) for β5 and β5i. Reaction progress was recorded on BioTek Synergy HT microplate reader by monitoring fluorescence at 460 nm (λex = 360 nm) for 90 min at 37 °C. The initial linear ranges were used to calculate velocity and determine residual activity. In the case of evaluation of β1, βi, β2, and β2i activities, the assay buffer was modified by replacing SDS with the proteasomal activator PA28α (Boston Biochem, Inc., Cambridge, MA, USA).
(§2) Final assay mixtures contained 0.2 nM human iCP or 0.2 nM human cCP in assay buffer (0.01% SDS (or PA28α in cases of β1, β1i subunits), 50 mM Tris-HCl, 0.5 mM EDTA, pH 7.4). Inhibitors were dissolved in DMSO and added to the black 96-well plates for at least eight different concentrations (the final concentration of DMSO was not more than 1%). After 30 min of incubation at 37 °C, the reaction was started by adding the substrate Suc-LLVY-AMC (for β5 and β5i) or Ac-nLPnLD-AMC (for β1) or Ac-PAL-AMC (for β1i). Fluorescence was monitored at 460 nm (λex = 360 nm) for 90 min at 37 °C. The progress of the reactions was recorded and the initial linear ranges were used to calculate the velocity. IC50 values were calculated using GraphPadPrism (GraphPad Software, San Diego, CA, USA) and are means from at least three independent determinations.

β1i subunit of human iCP = biological target: T2, β1i subunit of human iCP (Homo sapiens, UniProt P28065+P40306); assay: Inhibition of β1i activity (RA, IC50), Ac-PAL-AMC; type: biochemical; conditions: PA28α; for IC50: 30 min pre-incubation; for remaining activity at 10 µM: Table 3, read-out: β1i residual activity at 10 µM
T2 construct: purchased Boston Biochem, Inc., Cambridge, MA, USA
Method: as §1, §2

β2 subunit of human cCP = biological target: T3, β2 subunit of human cCP (Homo sapiens, UniProt P49720+Q99436); assay: Residual β2 activity, Boc-LRR-AMC; type: biochemical; conditions: PA28α; for β2 (RA [%]): 10 µM; for remaining activity at 10 µM: Table 3, read-out: β2 (RA [%])
T3 construct: purchased Boston Biochem, Inc., Cambridge, MA, USA
Method: as §1

hMAO-B = biological target: T4, hMAO-B (Homo sapiens, UniProt P27338); assay: Monoamine oxidase assay, hMAO-B; type: biochemical; conditions: 30 min pre-incubation, read-out: Residual activity [%] ± SD, hMAO-B
T4 construct: purchased Sigma Aldrich; host or cells: BTI-TN-5B1-4 insect cells
T4 sequence (P27338 1-520): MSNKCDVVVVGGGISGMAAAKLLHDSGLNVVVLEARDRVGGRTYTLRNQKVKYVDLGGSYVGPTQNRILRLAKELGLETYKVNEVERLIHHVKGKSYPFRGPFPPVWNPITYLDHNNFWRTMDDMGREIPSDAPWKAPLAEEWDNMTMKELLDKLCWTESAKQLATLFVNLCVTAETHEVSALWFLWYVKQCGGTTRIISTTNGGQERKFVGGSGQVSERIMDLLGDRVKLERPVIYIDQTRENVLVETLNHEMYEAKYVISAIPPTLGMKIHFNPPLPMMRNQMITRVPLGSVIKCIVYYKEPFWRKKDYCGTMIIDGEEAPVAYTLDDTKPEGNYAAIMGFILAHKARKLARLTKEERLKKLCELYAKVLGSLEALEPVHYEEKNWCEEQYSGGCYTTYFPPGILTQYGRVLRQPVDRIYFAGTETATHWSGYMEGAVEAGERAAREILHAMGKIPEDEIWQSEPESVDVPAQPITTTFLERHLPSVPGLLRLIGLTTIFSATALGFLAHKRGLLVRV
Method: The effects of the test compounds on hMAO were investigated using fluorimetric assay. Recombinant hMAO-A and hMAO-B, expressed in BTI-TN-5B1-4 insect cells, horseradish peroxidase type II and p-tyramine hydrochloride were purchased from Sigma Aldrich. Amplex Red was synthesized as previously described.
Briefly, 50 mM sodium phosphate buffer (pH = 7.4, 0.05 vol.% Triton X-114) containing the compounds or the reference inhibitors and hMAO were incubated at 37 °C for 30 min. The reaction was started by adding Amplex Red (final concentration, 250 µM), horseradish peroxidase (final activity, 1 U/mL), and p-tyramine (final concentration, 1 mM). The increase in fluorescence (λex = 530 nm, λem = 590 nm) was monitored for 30 min at 37 °C. DMSO at a concentration of 1.5% (v/v) was used for the control experiments. For the determination of blank (b), the enzyme was replaced by phosphate-buffered solution. Each measurement was performed in duplicate. Inhibitory potencies were expressed as residual activities (RA), as described under the Cholinesterase assay section.

[1] = UV-Vis-based stability assay in buffer; type: physicochemical; conditions: for Stability in Buffer (UV-Vis-based assay): after 1 h, assay buffer pH 7.4, 37 °C, 50 µM; for Stability in buffer solutions: assay buffer / PBS pH 7.4
Method: The aqueous stability of all compounds was determined spectrophotometrically by following the changes in the absorption spectra of the compounds. The buffer solution (50 mM Tris-HCl, 0.5 mM EDTA, pH 7.4) was pre-incubated at 37 °C. Aliquots of the compounds studied (1 mM in DMSO) were transferred to a 96-well flat-bottom UV-transparent microplate (Corning, CLS3635, Corning Inc, Corning, NY, USA) containing the buffer solution to obtain a 50 μM solution containing 5% DMSO (final volume, 300 μL). The plate was incubated without lid at 37 °C in a plate reader (Synergy H4, BioTek Instruments, Inc., Santa Clara, CA, USA) and the absorbance spectrum (244–400 nm) was acquired in sweep mode after 0, 15, 30, 60, 120, 180, and 240 min using a discontinuous kinetic procedure in Gen5 software (BioTek Instruments, Inc., Santa Clara, CA, USA). The time required to read the entire plate was 3 min. To determine the baseline, the compound solution was replaced with pure DMSO and subtracted from each reading. Compounds with an absorbance maximum of less than 0.20 AU were not evaluated using these assays due to the high experimental error. For other compounds, the relative absorbance difference between the first time point and 60 min at the most responsive wavelength was calculated. If the relative absorbance difference for the compound in the buffer was below 0.1, between 0.1–0.2, and above 0.2, the compound was classified as stable, intermediate, and unstable, respectively.

SMILES	IC50 (β5 subunit of human cCP)	IC50 (β1i subunit of human iCP)	β2 (RA [%]) (β2 subunit of human cCP; Table 6)	remaining activity at 100 µM (hMAO-B)	Stability in Buffer (UV-Vis-based assay) [1]	β5 (RA [%]) at 10 µM (β5 subunit of human cCP)	β2 (RA [%]) (β2 subunit of human cCP; Table 3)	remaining activity at 10 µM (β1i subunit of human iCP)	remaining activity at 10 µM (β2 subunit of human cCP)	Stability in buffer solutions [1]
C=Cc1nc(CC(=O)N[C@@H](CC(C)C)B2O[C@@H]3C[C@@H]4C[C@@H](C4(C)C)[C@]3(C)O2)cs1 [Compound 28]	8200 nM	2.2 ± 0.1 µM	NA (NA, Not active (RA above 95%))	> 50%	–	–	–	–	–	–
CC(C)C[C@H](NC(=O)CCn1c(C#N)nc2ccccc21)B(O)O [Compound 34]	1800 ± 400 nM	2.8 ± 0.5 µM	NA (NA, Not active (RA above 95%))	> 50%	–	–	–	–	–	–
CC(C)C[C@H](NC(=O)CCn1c(C#N)nc2ccccc21)B1O[C@@H]2C[C@@H]3C[C@@H](C3(C)C)[C@]2(C)O1 [Compound 30]	700 ± 100 nM	1.2 ± 0.1 µM	NA (NA, Not active (RA above 95%))	> 50%	stable ^b,c (relative absorbance difference for the compound in the buffer was below 0.1)	–	–	–	–	–
COc1cccc2oc(C#N)nc12 [Compound 6]	–	78 µM	–	35 ± 1%	stable ^c,d (relative absorbance difference for the compound in the buffer was below 0.1)	63% ^c	NA (NA, Not active (RA above 90%))	–	–	–
N#Cc1nc2c(O)cccc2o1 [Compound 10]	30000 ± 12000 nM	–	–	> 50%	stable ^c (relative absorbance difference for the compound in the buffer was below 0.1)	–	–	> 90%	> 90%	–
N#Cc1nc2cc(O)ccc2o1 [Compound 11]	–	–	–	29%	stable ^c (relative absorbance difference for the compound in the buffer was below 0.1)	53% ^c	–	> 90%	> 90%	–
CC(C)C[C@H](NC(=O)Cc1ccc2oc(C#N)nc2c1)B1O[C@@H]2C[C@@H]3C[C@@H](C3(C)C)[C@]2(C)O1 [Compound 39]	3600 ± 1100 nM	1.3 µM	NA (NA, Not active (RA above 95%))	47 ± 1%	stable ^b,c (relative absorbance difference for the compound in the buffer was below 0.1)	–	–	–	–	stable
N#Cc1nc2cccc(O)c2o1 [Compound 13]	11000 ± 9000 nM	–	–	> 50%	stable ^c (relative absorbance difference for the compound in the buffer was below 0.1)	–	–	> 90%	71%	–
CC(=O)Oc1cccc2oc(C#N)nc12 [Compound 14]	–	–	–	> 50%	stable ^c (relative absorbance difference for the compound in the buffer was below 0.1)	56% ^c	–	> 90%	> 90%	–
CC(C)C[C@H](NC(=O)CCn1c(C#N)nc2cccc(Cl)c21)B1O[C@@H]2C[C@@H]3C[C@@H](C3(C)C)[C@]2(C)O1 [Compound 38]	2000 ± 700 nM	1.9 µM	NA (NA, Not active (RA above 95%))	42%	stable ^b,c (relative absorbance difference for the compound in the buffer was below 0.1)	–	–	–	–	–
CC(C)C[C@H](NC(=O)CCCn1c(C#N)nc2ccccc21)B(O)O [Compound 35]	16000 ± 8000 nM	9.4 ± 1.9 µM	NA (NA, Not active (RA above 95%))	> 50%	stable ^b (relative absorbance difference for the compound in the buffer was below 0.1)	–	–	–	–	–
CC(=O)Oc1ccc2oc(C#N)nc2c1 [Compound 15]	–	–	–	33%	stable ^c (relative absorbance difference for the compound in the buffer was below 0.1)	55% ^c	–	> 90%	> 90%	–
CC(C)C[C@H](NC(=O)Cc1ccc2oc(C#N)nc2c1)B(O)O [Compound 40]	2000 ± 700 nM	2.1 ± 0.1 µM	NA (NA, Not active (RA above 95%))	44%	stable ^b (relative absorbance difference for the compound in the buffer was below 0.1)	–	–	–	–	stable
